Test results published in ChEMBL document CHEMBL1201862, “PubChem BioAssay data set” (2004).
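Interpolation was linear, between the two tested concentrations surrounding the appropriate level; five concentrations were tested over 48 hours in 96-well plates. GI50: concentration for 50% inhibition of growth.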 The source made the active and inactive calls. Cut-off read from the data, not from the text of the source: active = GI50 up to about 1.1 µM and inactive = higher.

Legend:
Assay in all cases: NCI tumour cell line growth inhibition, 48 h
EKVX = tested on: EKVX
UO-31 = tested on: UO-31
786-0 = tested on: 786-0
COLO 205 = tested on: COLO 205
MCF7 = tested on: MCF7
A549 = tested on: A549
HCT-15 = tested on: HCT-15
M14 = tested on: M14
MDA-MB-231 = tested on: MDA-MB-231
HCC 2998 = tested on: HCC 2998
HT-29 = tested on: HT-29
DU-145 = tested on: DU-145
NCI-H460 = tested on: NCI-H460
OVCAR-5 = tested on: OVCAR-5
U-251 = tested on: U-251
ACHN = tested on: ACHN
CAKI-1 = tested on: CAKI-1
LOX IMVI = tested on: LOX IMVI
KM12 = tested on: KM12

| SMILES | GI50 (EKVX) | GI50 (UO-31) | GI50 (786-0) | GI50 (COLO 205) | GI50 (MCF7) | GI50 (A549) | GI50 (HCT-15) | GI50 (M14) | GI50 (MDA-MB-231) | GI50 (HCC 2998) | GI50 (HT-29) | GI50 (DU-145) | GI50 (NCI-H460) | GI50 (OVCAR-5) | GI50 (U-251) | GI50 (ACHN) | GI50 (CAKI-1) | GI50 (LOX IMVI) | GI50 (KM12) |
| --- | --- | --- | --- | --- | --- | --- | --- | --- | --- | --- | --- | --- | --- | --- | --- | --- | --- | --- | --- |
| COC(=O)C1=C(OC)[C@H]2C#C/C=C\C#C[C@@H]3Nc4c(cc(O)c5c4C(=O)c4ccccc4C5=O)[C@]24O[C@@]34[C@H]1C | < 0.012 µM (active) | < 0.01 µM (active) | < 0.01 µM (active) | < 0.01 µM (active) | < 0.01 µM (active) | < 0.01 µM (active) | < 0.01 µM | < 0.01 µM (active) | < 0.01 µM (active) | < 0.01 µM (active) | < 0.01 µM (active) | < 0.01 µM (active) | < 0.01 µM (active) | < 0.01 µM (active) | < 0.01 µM (active) | < 0.01 µM (active) | < 0.01 µM (active) | < 0.01 µM (active) | < 0.01 µM (active) |
| NS(=O)(=O)c1nnc(NC(=O)c2ccccc2)s1 | > 100 µM (inactive) | > 100 µM (inactive) | > 100 µM (inactive) | > 100 µM (inactive) | > 100 µM (inactive) | > 100 µM (inactive) | > 100 µM | > 100 µM (inactive) | > 100 µM (inactive) | > 100 µM (inactive) | – | > 100 µM (inactive) | > 100 µM (inactive) | > 100 µM (inactive) | > 100 µM (inactive) | > 100 µM (inactive) | > 100 µM (inactive) | > 100 µM (inactive) | > 100 µM (inactive) |
| O=C1CC(c2ccccc2)NCCCCN2CC(CN1)C(C(O)c1ccccc1)C2=O (stereo unspecified) | > 100 µM (inactive) | > 100 µM (inactive) | > 100 µM (inactive) | > 100 µM (inactive) | > 100 µM (inactive) | > 100 µM (inactive) | > 100 µM | > 100 µM (inactive) | > 100 µM (inactive) | > 100 µM (inactive) | > 100 µM (inactive) | > 100 µM (inactive) | > 100 µM (inactive) | > 100 µM (inactive) | > 100 µM (inactive) | > 100 µM (inactive) | > 100 µM (inactive) | > 100 µM (inactive) | > 100 µM (inactive) |
| CN(CC#N)C(=O)Cc1ccc([N+](=O)[O-])cc1 | > 10 µM (inactive) | > 10 µM (inactive) | > 10 µM (inactive) | > 10 µM (inactive) | > 10 µM (inactive) | > 10 µM (inactive) | > 10 µM | > 10 µM (inactive) | > 10 µM (inactive) | > 10 µM (inactive) | > 10 µM (inactive) | > 10 µM (inactive) | > 10 µM (inactive) | > 10 µM (inactive) | > 10 µM (inactive) | > 10 µM (inactive) | > 10 µM (inactive) | > 10 µM (inactive) | > 10 µM (inactive) |
| CCC(C)N1CN(c2ccccc2)C2(CCN(CC3COc4ccccc4O3)CC2)C1=O (stereo unspecified) | 14.9 µM (inactive) | 10.8 µM (inactive) | 18 µM (inactive) | 17.7 µM (inactive) | 18.9 µM (inactive) | 28.7 µM (inactive) | 19.7 µM | 20.2 µM (inactive) | > 100 µM (inactive) | 18.2 µM (inactive) | 13.1 µM (inactive) | 21.6 µM (inactive) | – | > 10 µM (inactive) | 17.7 µM (inactive) | 33.5 µM (inactive) | 16.9 µM (inactive) | 23.4 µM (inactive) | 18.1 µM (inactive) |
| CN1C(=O)c2c(ccc3c2OCO3)C2C(O)Cc3cc4c(cc3C21)OCO4 (stereo unspecified) | 3.28 µM (inactive) | 6.37 µM (inactive) | 4.17 µM (inactive) | 3.88 µM (inactive) | 7.5 µM (inactive) | 5.96 µM (inactive) | 3.73 µM | 5.78 µM (inactive) | 3.38 µM (inactive) | 4.06 µM (inactive) | 3.3 µM (inactive) | 3.65 µM (inactive) | 3.4 µM (inactive) | > 100 µM (inactive) | 4.29 µM (inactive) | 7.21 µM (inactive) | 4.76 µM (inactive) | 9.12 µM (inactive) | 3.15 µM (inactive) |
| CC(C)OC(=O)c1ccc(NCc2cc(O)ccc2O)cc1 | 3.82 µM (inactive) | 1.51 µM (inactive) | 2.84 µM (inactive) | 3.06 µM (inactive) | 1.66 µM (inactive) | 7.48 µM (inactive) | 2.69 µM | 6.84 µM (inactive) | 2.2 µM (inactive) | 11.1 µM (inactive) | 13.7 µM (inactive) | 6.11 µM (inactive) | 11.1 µM (inactive) | 10.4 µM (inactive) | 4.32 µM (inactive) | 3.6 µM (inactive) | 1.28 µM (inactive) | 3.4 µM (inactive) | 3.38 µM (inactive) |
| c1ccc(CSc2nc(N3CCOCC3)c3cn[nH]c3n2)cc1 | 16.4 µM (inactive) | 11.6 µM (inactive) | 37.7 µM (inactive) | 12.6 µM (inactive) | 23.1 µM (inactive) | 22.8 µM (inactive) | 25.8 µM | 23.6 µM (inactive) | 17 µM (inactive) | 23.6 µM (inactive) | 30.8 µM (inactive) | 26.2 µM (inactive) | 17.8 µM (inactive) | 22.3 µM (inactive) | 20.5 µM (inactive) | 17.2 µM (inactive) | 9.18 µM (inactive) | 15.4 µM (inactive) | 13.3 µM (inactive) |
| O=C(O)c1cccc(Nc2c(C(=O)O)cccc2[N+](=O)[O-])c1 | > 100 µM (inactive) | > 100 µM (inactive) | > 100 µM (inactive) | > 100 µM (inactive) | > 100 µM (inactive) | > 100 µM (inactive) | > 100 µM | > 100 µM (inactive) | > 100 µM (inactive) | > 100 µM (inactive) | > 100 µM (inactive) | > 100 µM (inactive) | > 100 µM (inactive) | > 100 µM (inactive) | – | > 100 µM (inactive) | > 100 µM (inactive) | > 100 µM (inactive) | 57.4 µM (inactive) |
| O=C1OC(C2Cc3cc4c(cc3C2=O)CCC4)c2ccccc21 (stereo unspecified) | 49.5 µM (inactive) | 55.6 µM (inactive) | 80 µM (inactive) | 33.9 µM (inactive) | 41.5 µM (inactive) | 44.7 µM (inactive) | 34.3 µM | > 100 µM (inactive) | 36.6 µM (inactive) | 21.2 µM (inactive) | 30.6 µM (inactive) | 93.1 µM (inactive) | 40 µM (inactive) | > 100 µM (inactive) | 34 µM (inactive) | 47.9 µM (inactive) | > 100 µM (inactive) | 37 µM (inactive) | 35.9 µM (inactive) |
| CN(C)c1ccc(C2SCC(=O)N2c2ccc(Oc3ccc(Cl)cc3)c(Cl)c2)cc1 (stereo unspecified) | 22.8 µM (inactive) | 11.6 µM (inactive) | 17.7 µM (inactive) | 20.6 µM (inactive) | 37.2 µM (inactive) | 22.7 µM (inactive) | 24.2 µM | 28.8 µM (inactive) | 20.4 µM (inactive) | 22.3 µM (inactive) | 20.2 µM (inactive) | 16.7 µM (inactive) | 22.5 µM (inactive) | 26.4 µM (inactive) | 20.5 µM (inactive) | 29.7 µM (inactive) | 32.4 µM (inactive) | 18.7 µM (inactive) | 20.3 µM (inactive) |
| CC(=O)Nc1ccc2c(C)c3c(nc2n1)[nH]c1ccccc13 | 23.1 µM (inactive) | 24.5 µM (inactive) | 35.4 µM (inactive) | 17.2 µM (inactive) | 19.2 µM (inactive) | 41.1 µM (inactive) | 15.5 µM | 25.4 µM (inactive) | 35.1 µM (inactive) | 33 µM (inactive) | 27.9 µM (inactive) | 33.6 µM (inactive) | 21.1 µM (inactive) | 51.4 µM (inactive) | 32.4 µM (inactive) | 17.8 µM (inactive) | 24 µM (inactive) | 16.4 µM (inactive) | 21.9 µM (inactive) |
| COc1ccc(C2OC(c3ccncc3)=NN2C)cc1OC (stereo unspecified) | > 100 µM (inactive) | 60.1 µM (inactive) | > 100 µM (inactive) | > 100 µM (inactive) | 71.3 µM (inactive) | > 100 µM (inactive) | > 100 µM | > 100 µM (inactive) | 67.6 µM (inactive) | > 100 µM (inactive) | > 100 µM (inactive) | > 100 µM (inactive) | > 100 µM (inactive) | > 100 µM (inactive) | > 100 µM (inactive) | > 100 µM (inactive) | 73.3 µM (inactive) | > 100 µM (inactive) | > 100 µM (inactive) |
| CCOC(=O)C(=CNc1ccc(N(C2=NCC(C)S2)c2ccc(F)c(Cl)c2)cc1)C(=O)OCC (stereo unspecified) | 19.5 µM (inactive) | 18.1 µM (inactive) | 16.2 µM (inactive) | 17.8 µM (inactive) | 12.8 µM (inactive) | 27 µM (inactive) | 18.8 µM | 18.9 µM (inactive) | 14.5 µM (inactive) | 15.2 µM (inactive) | 18.1 µM (inactive) | 17.6 µM (inactive) | 23.6 µM (inactive) | 19.6 µM (inactive) | 20.8 µM (inactive) | 18.5 µM (inactive) | 39.2 µM (inactive) | 16.8 µM (inactive) | 18.7 µM (inactive) |
| Cc1cc2c(cc1Cl)Sc1nnc(Nc3ccccc3)n1S2(=O)=O | 11.7 µM (inactive) | 13.4 µM (inactive) | 4.75 µM (inactive) | – | 8.02 µM (inactive) | 12.1 µM (inactive) | 5.07 µM | 14.1 µM (inactive) | 11.7 µM (inactive) | 3.96 µM (inactive) | 23.4 µM (inactive) | 18.2 µM (inactive) | 8.36 µM (inactive) | 31.9 µM (inactive) | 3.75 µM (inactive) | 12.2 µM (inactive) | 11.1 µM (inactive) | 3.85 µM (inactive) | 12 µM (inactive) |
